{"source": "patent US20240002467A1", "about": "“COMPOSITIONS AND METHODS OF INHIBITING THE BINDING OF PLASMA IGG AUTOANTIBODIES TO SEROTONIN 2A RECEPTOR” (UNITED STATES GOVERNMENT AS REPRESENTED BY THE DEPARTMENT …, priority 2020, published 2024)", "key": {"[1]": {"conditions": "cited from earlier work"}, "[2]": {"conditions": "once-daily valsartan 160 mg; cited from earlier work"}, "[3]": {"system": "Zucker diabetic fatty rats", "conditions": "ZDF rats treated 6 months, cited from earlier work"}, "[4]": {"system": "male Zucker diabetic fatty rats", "assay": "Tail cuff blood pressure in male ZDF rats after IP peptide", "type": "in vivo, rat", "parameters": "systolic blood pressure within 15 minutes of administration: unit not given here", "conditions": "for mean systolic blood pressure, baseline: 8.5-week-old male ZDF rats before single IP: pegylated 1 mg/kg (n=3), scrambled 2 mg/kg (n=4); for Estimate: difference in mean diastolic blood pressure vs scrambled decoy peptide 2 (time series analysis) / Estimate: difference in mean systolic blood pressure vs scrambled decoy peptide 2 (time series analysis): pegylated 1 mg/kg IP vs scrambled 2 mg/kg IP (reference = 0)", "protocol": "Animals. Male ZDF and lean (+/?) Zucker rats were obtained from Charles River Laboratories (Kingston, NY) at approximately 6-7 weeks of age. The rats were single housed upon arrival, without enrichment. Rats were acclimatized for two weeks prior to experimental procedures. Rats were provided ad libitum access to food and water and maintained in a 12 h light/dark cycle with lights on at 0630. The procedures occurred during the light phase of the cycle. Blood pressure testing (following acute or chronic administration of the decoy peptides) was conducted in three separate cohorts of animals.\nCohort 1: Three 25-week-old male ZDF and three, age-matched, male Zucker lean rats (ZLR) treated with IP decoy peptide 2 (ZDF) vs saline (vehicle) (ZLR).\nCohort 2: Eleven-week old male ZDF (n=5) and Zucker lean rats (n=4) treated with IP decoy peptide 2.\nCohort 3: Twelve 8.5-week old male Zucker diabetic fatty rats were randomly assigned to one of three treatment groups (n=4/group). The rats underwent baseline blood pressure determinations using tail-cuff plethysmography technique. Next, the animals who expressed baseline hypertension, i.e., blood pressure >135/85, received either a 1 mg/kg intraperitoneal injection of pegylated decoy peptide 2 (n=3); a 2 mg/kg intraperitoneal dose of a scrambled decoy peptide 2 (n=4); or vehicle (i.e., sterile saline) (N=4). Blood pressure was determined at 15 minutes, 45 minutes, 4 hours, 8 hours, 24 hours, 30 and 48 hours following single IP injection. One week later, the same two groups of ZDF rats received either 0.75 mg/kg IP pegylated decoy peptide 2, 2 mg/kg scrambled decoy peptide 2, or sterile saline; and blood pressure was determined at similar timepoints. Two weeks later, two groups of 12-week-old ZDF rats (n=6/group) including those that had previously received acute peglyated decoy peptide 2 or scrambled decoy peptide 2 were treated on an alternative daily schedule with IP, free decoy peptide 2 (2 mg/kg) vs IP scrambled decoy peptide 2 (2 mg/kg) continuously for 13 weeks until sacrifice at 25 weeks of age. Body weight was determined immediately before sacrifice and after perfusion; and hearts were excised and weighed for determination of the heart-to-(perfused) body weight ratio.\n(§1) Blood pressure monitoring. Tail cuff blood pressure measurement was performed using an automated CODA noninvasive blood pressure system (Kent Scientific, Torrington, CT). Rats were placed on an insulated warming platform in a well-heated room to ensure proper body temperature. Cuff monitors were provided in different sizes to accommodate rats of different ages and having different body weights. After the animal was positioned in the clear plastic restraint holder, the appropriate-sized cuff was slid over the rat's tail.\nStatistical Analysis. Comparisons were made using Student's unpaired t-test (Tables 3-6, 9 and FIG. 18) or time series analysis (Tables 7, 8, FIG. 16).\nas §1, with “CT.).” for “CT).”\nExperiment 1: Four 12-week-old male ZDF rats were randomly assigned to receive either a single IP injection of a scrambled sequence (SEQ ID NO: 7) of Peptide ID #2 (SEQ ID NO: 2) at 1 mg/kg concentration or a 1 mg/kg concentration of myristolated Peptide ID #2 (SEQ ID NO: 9). Blood pressure was determined using tail cuff plethysmography (Kent Scientific) at 1, 4, 6, 48 and 72 hours post-injection.\nExperiment 2: Six 12-week-old male ZDF rats were assigned to each of three treatment groups (N=2/group). […]"}, "[5]": {"system": "Zucker diabetic fatty rats", "conditions": "rat, in vivo"}, "[6]": {"system": "Zucker diabetic fatty rats", "assay": "Observation of side effects / tolerability in ZDF rats"}, "[7]": {"system": "Zucker diabetic fatty rats", "assay": "Plasma hepatic transaminases (AST, ALT) after chronic IP treatment of ZDF rats", "type": "in vivo, rat", "conditions": "2 mg/kg IP alternate daily weeks 10-16, blood at week 16, vs saline", "protocol": "Two groups of Zucker diabetic fatty rats (N=4 each) were treated with alternate daily intraperitoneal dose (IP) of either a composition comprising decoy peptide 2 (SEQ ID NO: 2) (2 mg/kg) or an equal volume of sterile saline (vehicle) for […] (between weeks 10-16). Blood was obtained at week 16 for determination of plasma hepatic transaminases (AST, ALT) and plasma triglycerides."}, "[8]": {"conditions": "8.5-week-old male ZDF rats, single IP: pegylated 1 mg/kg, scrambled 2 mg/kg"}, "[9]": {"conditions": "ZDF rats, before pegylated 0.75 mg/kg IP"}, "[10]": {"conditions": "ZDF rats, pegylated 0.75 mg/kg single IP"}, "[11]": {"conditions": "ZDF rats, listed as Peg decoy peptide 2"}, "[12]": {"conditions": "ZDF rats, pegylated 1 mg/kg single IP"}}, "note": "Values joined by “and” are separate entries in the source; they are usually repeats but may differ in a detail not shown here. Equal values may be shown once. “Also recorded” adds a separate entry of the source. Ends that are not written are not given here."}
{"compound": "CC/C=C\\C/C=C\\C/C=C\\C/C=C\\C/C=C\\CCCC(=O)O", "note": "[EPA]", "values": [{"measurement": "HR for cardiovascular events", "setting": "[1]; REDUCE-IT", "value": 0.75}, {"measurement": "reduction in occurrences of cardiovascular death, nonfatal heart attack, nonfatal stroke, coronary stenting or bypass or unstable angina", "setting": "[1]; REDUCE-IT", "value": 25, "unit": "%"}, {"measurement": "reduction of plasma triglyceride level", "setting": "[1]; humans, chronic treatment, REDUCE-IT after 1 year", "value": "18% and 18.3%"}]}
{"compound": "CCCCC(=O)N(Cc1ccc(-c2ccccc2-c2nnn[nH]2)cc1)[C@H](C(=O)O)C(C)C", "note": "[valsartan]", "values": [{"measurement": "systolic blood pressure-lowering effect after 24 hours, in words", "setting": "[2]", "value": "no significant systolic blood pressure-lowering effect"}]}
{"compound": "CN(C)C(=N)N=C(N)N", "note": "[metformin]", "values": [{"measurement": "serum ALT, times higher than upper limit of normal", "setting": "[3]; both groups", "value": "more than 3 times"}, {"measurement": "serum ALT", "setting": "[3]; metformin or vehicle (both groups)", "value": "~142", "unit": "IU/L"}]}
{"compound": "K(DBCO-DSPE-PEG2K)-SCLLADDN (not fully specified; Lys-DBCO-DSPE-PEG2000 conjugate; MOD_RES (1)..(1) Lys(Azide)) [pegylated decoy peptide 2]", "values": [{"measurement": "mean systolic blood pressure, baseline", "setting": "[4]", "value": 155, "unit": "mm Hg"}, {"measurement": "mean systolic blood pressure, baseline", "setting": "[4]; listed as Pegylated decoy peptide 2", "value": "155+/−12 mm Hg"}, {"measurement": "mean diastolic blood pressure, baseline", "setting": "[4]; 8.5-week-old male ZDF rats before single IP: pegylated 1 mg/kg, scrambled 2 mg/kg", "value": "105+/−8 mm Hg"}, {"measurement": "mean diastolic blood pressure 45 minutes post-injection", "setting": "[4]; [8]", "value": "92+/−11 mm Hg"}, {"measurement": "mean systolic blood pressure 45 minutes post-injection", "setting": "[4]; [8]", "value": "122+/−5 mm Hg"}, {"measurement": "diastolic blood pressure, baseline", "setting": "[4]; [9]", "value": 108, "unit": "mm Hg"}, {"measurement": "systolic blood pressure, baseline", "setting": "[4]; [9]", "value": 154, "unit": "mm Hg"}, {"measurement": "diastolic blood pressure 30 hours post injection", "setting": "[4]; [10]", "value": 80, "unit": "mm Hg"}, {"measurement": "diastolic blood pressure at 45 minutes post-injection", "setting": "[4]; [10]", "value": 80, "unit": "mm Hg"}, {"measurement": "diastolic blood pressure lowering at 45 minutes post-injection", "setting": "[4]; [10]", "value": 19, "unit": "%"}, {"measurement": "reduction of systolic blood pressure at 45 minutes post-injection", "setting": "[4]; [10]", "value": 17, "unit": "%"}, {"measurement": "reduction of systolic blood pressure between 24-30 hours after injection", "setting": "[4]; [10]", "value": "14-19%"}, {"measurement": "systolic blood pressure at 45 minutes post-injection", "setting": "[4]; [10]", "value": 128, "unit": "mm Hg"}, {"measurement": "time at which diastolic blood pressure recovered to baseline", "setting": "[4]; [10]", "value": 48, "unit": "h"}, {"measurement": "time at which systolic blood pressure recovered to baseline", "setting": "[4]; [10]", "value": 48, "unit": "h"}, {"measurement": "Estimate: difference in mean diastolic blood pressure vs scrambled decoy peptide 2 (time series analysis)", "setting": "[4]; ZDF rats", "value": "−9.8", "unit": "mm Hg"}, {"measurement": "Estimate: difference in mean systolic blood pressure vs scrambled decoy peptide 2 (time series analysis)", "setting": "[4]; ZDF rats", "value": "−8.9", "unit": "mm Hg"}, {"measurement": "Estimate: difference in mean diastolic blood pressure vs scrambled decoy peptide 2 (time series analysis)", "setting": "[4]; [11]", "value": "−9.7771", "unit": "mm Hg"}, {"measurement": "Estimate: difference in mean systolic blood pressure vs scrambled decoy peptide 2 (time series analysis)", "setting": "[4]; [11]", "value": "−8.9162", "unit": "mm Hg"}, {"measurement": "change of systolic blood pressure within 15 minutes vs baseline", "setting": "[4]; [12]", "value": "−28", "unit": "%"}, {"measurement": "diastolic blood pressure lower than baseline at 30 hours post injection", "setting": "[4]; [12]", "value": 34, "unit": "%"}, {"measurement": "maximum reduction of diastolic blood pressure, 8 hours after injection", "setting": "[4]; [12]", "value": 36, "unit": "%"}, {"measurement": "reduction of diastolic blood pressure at 4 hours post-injection", "setting": "[4]; [12]", "value": 20, "unit": "%"}, {"measurement": "systolic blood pressure within 15 minutes of administration", "setting": "[4]; [12]", "value": 111}, {"measurement": "time after which systolic blood pressure had returned to baseline", "setting": "[4]; [12]", "value": 48, "unit": "h"}, {"measurement": "dose dependence of systolic and diastolic blood pressure lowering, in words", "setting": "[4]; ZDF rats, single IP 0.75 to 1 mg/kg", "value": "significant, dose-dependent systolic and diastolic blood pressure lowering effects; also recorded: significant, dose-dependent, long-lasting systolic and diastolic blood pressure-lowering effect"}, {"measurement": "effect on diastolic blood pressure, in words", "setting": "[4]; ZDF rats, single IP: pegylated 1 mg/kg, scrambled 2 mg/kg", "value": "trend of significant acute decline in diastolic blood pressure"}, {"measurement": "sustained reductions in systolic and diastolic blood pressure 30 hours after administration", "setting": "[4]; male ZDF rat, pegylated 1 mg/kg", "value": "25-26%"}, {"measurement": "tolerability after the initial dose", "setting": "[5]", "value": "no sedation or hypotension was observed after the initial dose"}]}
{"compound": "SCLLADDN [decoy peptide 2]", "values": [{"measurement": "side effects of acute blood pressure-lowering", "setting": "[6]; 11-week-old male ZDF rats (N=5), 2 mg/kg IP", "value": "none of the five male ZDF rats experienced any untoward side effects including hypotension or acute sedation"}, {"measurement": "acute side effects after first dose", "setting": "[6]; 25-week-old male ZDF rats, 2 mg/kg IP, two of three rats, resolved spontaneously", "value": "sedation and borderline hypotension"}, {"measurement": "side effects after repeat drug exposure", "setting": "[6]; 25-week-old male ZDF rats, up to 18 days after repeat 2 mg/kg IP", "value": "no untoward acute or long-term side effects"}, {"measurement": "long-term side effects after chronic administration", "setting": "[6]; ZDF rats, chronic (10 weeks) administration", "value": "No untoward long-term side effects were observed"}, {"measurement": "safety and tolerability of alternate daily dosing", "setting": "[6]; obese Zucker rats, 2 mg/kg alternate daily", "value": "safe, well-tolerated"}, {"measurement": "mean plasma AST", "setting": "[7]", "value": "did not differ significantly; also recorded: not associated with significant increase in AST"}]}
{"compound": "CC(C)C[C@H](NC(=O)[C@H](CS)NC(=O)[C@H](CC(=O)O)NC(=O)[C@H](CC(N)=O)NC(=O)[C@H](CO)NC(=O)[C@H](C)NC(=O)[C@@H](N)CC(C)C)C(=O)N[C@@H](CC(=O)O)C(=O)O", "note": "[scrambled decoy peptide 2, reference compound]", "values": [{"measurement": "untoward physical or behavioral effect", "setting": "[6]; ten ZDF rats (Expt 1 and 2), up to 14-21 days after single IP", "value": "None of the ten rats tested (N=4 in Expt 1; N=6 in Expt 2) experienced any untoward physical or behavioral effect"}]}
